Key:
Pkd2-KO mice = test: Efficacy in the Pkd2-KO model of PKD; assay type: in vivo, mouse; conditions: for BUN (mean) / Cystic Index (mean) / KW/BW Ratio (mean) / Serum Creatinine (mean): 20 mg/kg s.c. on days 10, 11, 12, 19 of age, sacrificed at 28 days
From the text: (§1) Two experimental models of PKD were used to evaluate efficacy. Pkd2-KO mice spontaneously develop polycystic kidney disease, and were used as a model of ADPKD. See Patel et al., PNAS, 2013; 110 (26): 10765-10770. Pcy mice bearing a mutation in Nphp3 spontaneously develop polycystic kidney disease, with a slower progression of disease than that observed in the Pkd2-KO mice. The Pcy model is used as a model of nephronophthisis. See Happe and Peters, Nat. Rev. Nephrol., 2014; 10:587-601.
RG4326 was tested in the Pkd2-KO mouse model of ADPKD. This model is also referred to as the PKD2-KO model. Wild-type mice were used as control mice. An oligonucleotide complementary to a miRNA unrelated to miR-17 was used as a treatment control for specificity (RG5124).
On each of days 10, 11 12, and 19 of age, sex-matched littermates of mice were administered a subcutaneous injection of RG4326 at a dose of 20 mg/kg (n=12), RG5124 at a dose of 20 mg/kg (n=12), tool anti-miR-17 at a dose of 20 mg/kg (n=12), or PBS (n=12). Mice were sacrificed at 28 days of age, and kidney weight, body weight, cyst index, serum creatinine level, and blood urea nitrogen (BUN) level were measured. BUN level is a marker of kidney function. A higher BUN level correlates with poorer kidney function, thus a reduction in BUN level is an indicator of reduced kidney injury and damage and improved function. Statistical significance was calculated by one-way ANOVA with Dunnett's multiple correction.
(§2) Cyst index is a histological measurement of cystic area relative to total kidney area. For this analysis, one kidney was perfused with cold PBS and 4% (wt/vol) paraformaldehyde and then harvested. Kidneys were fixed with 4% paraformaldehyde for 2 hours and then, embedded in paraffin for sectioning. Sagittal sections of kidneys were stained with hematoxylin and eosin (H&E). All image processing steps were automated and took place in freely available and open source software: An R1 script which used functions from the EBImage Bioconductor package2 and the ImageMagick3 suite of image processing tools. Kidney H&E images in Aperio SVS format were converted to TIFF images, and the first frame was retained for image analysis. First, the total kidney section area was calculated using image segmentation. Image segmentation was similarly used to find all internal structures including kidney cyst. A filter was applied to remove all objects less than a mean radius of three pixels. The cystic index is the image area associated with cysts divided by the total kidney areas. Cystic index was separately calculated for longitudinal and transverse kidney sections for each individual animal. Combined cystic index of individual animals were compared for each treatment groups.

Pcy mice = test: Efficacy in the Pcy model of PKD; assay type: in vivo, mouse; conditions: for BUN (mean) / Cystic Index (mean) / KW/BW Ratio (mean): 25 mg/kg s.c. for oligonucleotides, sacrificed at 15 weeks of age
From the text: as §1, §2
RG4326 was tested in the Pcy mouse model. Wild-type mice were used as control group. From four weeks of age, Pcy mice were treated once per week via subcutaneous injection with RG4326 at a dose of 25 mg/kg, tool anti-miR-17 at a dose of 25 mg/kg, control oligonucleotide RG5124 at a dose of 25 mg/kg, or PBS. Each treatment group contained 15 male mice. Three treatments were administered on […] days of age, and weekly thereafter at 6, 7, 8, 9, 10, 11, 12, 13, and 14 weeks of age. Also tested was tolvaptan, a vasopressin V2-receptor antagonist (VRA) that is prescribed to some patients with polycystic kidney disease. Mice were sacrificed at 15 weeks of age. Body weight was recorded. One kidney was extracted and weighed and the other processed for histological analysis to calculate cyst index as described for the study in the Pkhd1/cre; Pkd2^F/F. Blood urea nitrogen (BUN) level and serum creatinine level were measured. Statistical significance was calculated by one-way ANOVA with Dunnett's multiple correction.

miR-17 = miR-17 luciferase reporter assay in HeLa cells; assay type: cell-based; conditions: for Luciferase Fold Derepression: mean
Description: In vitro potency was evaluated using a luciferase reporter assay. A luciferase reporter plasmid for miR-17, with […] in the 3′-UTR of the luciferase gene. Compounds of longer lengths were selected if their maximum inhibition was greater than that of the tool anti-miR-17 compound. As shorter compounds, such as 9-mers, are typically not maximally active in the same assay conditions used for longer compounds, shorter compounds were selected based on maximum inhibition relative to appropriate control compounds. In this way, compounds that are diverse in both length and chemical composition were included in further testing.
One assay employed was the luciferase assay. […] Accordingly, the luciferase assay transfection conditions were optimized for short anti-miR-17 compounds, so that the inhibitory activity of the compounds could be measured.
The luciferase reporter plasmid for miR-17 contained a fully complementary miR-17 binding site in the 3′-UTR of the luciferase gene. HeLa cells were transfected with the microRNA mimic and its cognate luciferase reporter, followed by transfection with anti-miR-17 at doses of […], 3, 10, 30, 100, and 300 nM. At the end of the 24-hour transfection period, luciferase activity was measured. As shown in Table 2-1, RG4047, while not as potent as RG4326, inhibited miR-17 activity in a dose dependent manner. SD indicates standard deviation.
Additional in vitro assays were conducted to further explore the potency of RG4326. A luciferase reporter assay was used to test the ability of RG4326 to inhibit the miR-17 family members miR-17, miR-20a, miR-93, and miR-106b. A luciferase reporter plasmid for each of miR-20a, miR-93, and miR-106b was constructed, with a fully complementary microRNA binding site in the 3′-UTR of the luciferase gene. HeLa cells were transfected with the microRNA mimic and its cognate luciferase reporter, followed by transfection with anti-miR-17 at a dose of 100 nm. […] As RG4326 is 100% complementary to the other miR-17 family members not tested, miR-20b and […], it is expected to inhibit these microRNAs as well.

[1] = 0.001 nM anti-miR-17, 24-hour transfection
[2] = 3 nM anti-miR-17, 24-hour transfection
[3] = 10 nM anti-miR-17, 24-hour transfection
[4] = 30 nM anti-miR-17, 24-hour transfection
[5] = 100 nM anti-miR-17, 24-hour transfection
[6] = 300 nM anti-miR-17, 24-hour transfection
[7] = 20 mg/kg, not statistically significant

Compound	effect on KW/BW ratio, BUN and cyst index (in words) (Pkd2-KO mice; 20 mg/kg)	efficacy on KW/BW ratio, BUN or cyst index (in words) (Pcy mice)	Luciferase Fold Derepression (miR-17; [1])	Luciferase Fold Derepression (miR-17; [2])	Luciferase Fold Derepression (miR-17; [3])	Luciferase Fold Derepression (miR-17; [4])	Luciferase Fold Derepression (miR-17; [5])	Luciferase Fold Derepression (miR-17; [6])	BUN (mean) (Pkd2-KO mice) [mg/dL]	Cystic Index (mean) (Pkd2-KO mice)	KW/BW Ratio (mean) (Pkd2-KO mice) [mg/g]	Serum Creatinine (mean) (Pkd2-KO mice) [mg/dL]	BUN (mean) (Pcy mice)	Cystic Index (mean) (Pcy mice)	KW/BW Ratio (mean) (Pcy mice)	further results
5′-CTGCACTGTAAGCACTTTG-3′ (all phosphorothioate, sugars by position and methylation of C not given here; DNA, 2'-MOE and S-cEt sugars) [Tool anti-miR-17, reference compound]	no statistically significant changes were observed	did not result in statistically significant reductions	–	–	–	–	–	–	–	–	–	–	–	–	–	–
COC1C(OP(=O)(S)OC[C@H]2O[C@@H](n3cnc4c(N)ncnc43)C(F)C2OP(=O)(S)OC[C@H]2O[C@@H](n3ccc(N)nc3=O)C(F)C2OP(=O)(S)OC[C@H]2O[C@@H](n3ccc(=O)[nH]c3=O)C(F)C2OP(=O)(S)OC[C@H]2O[C@@H](n3ccc(=O)[nH]c3=O)C(OC)C2OP(=O)(S)OC[C@]23O[C@@H](n4ccc(=O)[nH]c4=O)C(O[C@H]2C)C3OP(=O)(S)OC[C@]23O[C@@H](n4cnc5c(=O)[nH]c(N)nc54)C(O[C@H]2C)C3O)[C@@H](COP(=O)(S)OC2C3O[C@@H](C)[C@]2(COP(=O)(S)OC2C4O[C@@H](C)[C@]2(CO)O[C@H]4n2cnc4c(N)ncnc42)O[C@H]3n2cnc3c(=O)[nH]c(N)nc32)O[C@H]1n1ccc(N)nc1=O (stereo in doubt) [RG4326, ASGSCMAFCFUFUMUSGS]	–	–	1	5.3	10.4	14.1	13.9	11.7	72.92	50.3	40.98	0.26	19.7	0.16	18.1	Mean luciferase fold derepression, miR-17 (miR-17; anti-miR-17 at 100 nm): 13.1; Mean serum creatinine levels lower than in PBS mice (Pkd2-KO mice; [7]): 18%; mean reduction in cyst index compared to PBS (Pkd2-KO mice; [7]): 12%; mean KW/BW ratio lower than in PBS mice (Pkd2-KO mice; 20 mg/kg, p=0.0099): 29%; mean KW/BW ratio lower relative to PBS-treated mice (Pcy mice; 25 mg/kg, p=0.0055): 19%; BUN reduced relative to PBS-treated mice (Pcy mice; 25 mg/kg, p=0.0070): 16%; cyst index reduced compared to PBS (Pcy mice; 25 mg/kg, p=0.016): 34%
ASCSAMAFUFGFCMASCS [RG5124, reference compound]	did not reduce kidney weight to body weight ratio, cyst index, or BUN	did not result in statistically significant reductions	1	1.2	2.6	1	0.7	1	86.67	56.67	55.35	0.31	21.2	0.23	21.4	–

— patent publication US20250333745A1, “METHODS AND COMPOSITIONS FOR TREATMENT OF POLYCYSTIC KIDNEY DISEASE” (Regulus Therapeutics Inc., priority 2016, published 2025)
